The target of assay [1] is recombinant N-terminal MLH1 (residues 15-340) (Homo sapiens (Human), UniProt P40692). The assay can be described thus: Fluorescence polarisation assay for MLH1 (protocol for all Examples except Examples 64, 76, 90 and 95). The assay is classed as binding. The note with it: FP probe displacement; 100 nM N-terminal MLH1, 5 nM probe compound, read after 15 minutes; all Examples except 64, 76, 90 and 95. The procedure: Fluorescence Polarisation Assay for MLH1 (Protocol for all Examples Except Examples 64, 76, 90 and 95)
(§1) Test compounds, as 10 mM DMSO stocks, were dispensed into a Black Fluotrac 200 384 well medium binding plate (Greiner Bio-One, item number 781076) using a Labcyte Echo acoustic liquid handler. For single point screening, test compounds were added to wells in columns 1-22 whilst DMSO was added to wells in columns 23 and 24 in order to normalise the plate. For potency determination, serial dilutions of test compounds were added to wells in columns 3-22 and DMSO volume was normalised across the plate.
20 μL assay buffer was added to all wells in columns 1 and 24 (column 24 only for single point screening) using a MultiDrop Combi (ThermoFisher). Plates were centrifuged for 1 minute at 250×g and were incubated at room temperature for 30 minutes prior to the addition of 20 μL of 2×(10 nM) of 5-((5-(4-((2-(2,4-dihydroxy-5-isopropylbenzoyl)isoindolin-5-yl)methyl)piperazin-1-yl)pentyl)carbamoyl)-2-(6-(dimethylamino)-3-(dimethyliminio)-3H-xanthen-9-yl)benzoate (referred to hereinafter as “probe compound”) in assay buffer (prepared from a 100 μM DMSO stock) with a MultiDrop Combi (ThermoFisher). The final concentration of N-terminal MLH1 was 100 nM and the final concentration of probe compound was 5 nM.
Compound plates were centrifuged for 1 minute at 250×g for 1 minute and were incubated at room temperature for 15 minutes before being read on a PheraStar FSX (fitted with 384-well aperture spoon and 540 590 590 FP optic module). The gain and focus were adjusted before each plate was read so that the polarisation of a no enzyme control (column 24) was equal to 35 mP. Data were normalised against the no inhibitor controls (column 23) and no enzyme controls (column 24).
(In general: In fluorescence polarisation assays a small probe gives low polarisation when free and higher when bound to something large.)

For assay [2], the target named is recombinant N-terminal PMS2 (residues 1-365) (Homo sapiens (Human), UniProt P54278). The assay can be described thus: Fluorescence polarisation assay for PMS2. The assay is classed as binding. The note with it: FP probe displacement; 10 nM N-terminal PMS2, 5 nM probe compound, read after 1 hour. The procedure:
Fluorescence Polarisation Assay for PMS2
as §1
20 μL assay buffer was added to all wells in columns 1 and 24 (column 24 only for single point screening) using a MultiDrop Combi (ThermoFisher). Plates were centrifuged for 1 minute at 250×g and were incubated at room temperature for 30 minutes prior to the addition of 20 μL of 2×([…]) of 5-((5-(4-((2-(2,4-dihydroxy-5-isopropylbenzoyl)isoindolin-5-yl)methyl)piperazin-1-yl)pentyl)carbamoyl)-2-(6-(dimethylamino)-3-(dimethyliminio)-3H-xanthen-9-yl)benzoate (referred to hereinafter as “probe compound”) in assay buffer (prepared from a 100 μM DMSO stock) with a MultiDrop Combi (ThermoFisher). The final concentration of N-terminal PMS2 was 10 nM and the final concentration of probe compound was 5 nM.
Compound plates were centrifuged for 1 minute at 250×g for 1 minute and were incubated at room temperature for 1 hour before being read on a PheraStar FSX (fitted with 384-well aperture spoon and 540 590 590 FP optic module). The gain and focus were adjusted before each plate was read so that the polarisation of a no enzyme control (column 24) was equal to 35 mP. Data were normalised against the no inhibitor controls (column 23) and no enzyme controls (column 24).

Chain of recombinant N-terminal PMS2 (residues 1-365) (P54278 1-365): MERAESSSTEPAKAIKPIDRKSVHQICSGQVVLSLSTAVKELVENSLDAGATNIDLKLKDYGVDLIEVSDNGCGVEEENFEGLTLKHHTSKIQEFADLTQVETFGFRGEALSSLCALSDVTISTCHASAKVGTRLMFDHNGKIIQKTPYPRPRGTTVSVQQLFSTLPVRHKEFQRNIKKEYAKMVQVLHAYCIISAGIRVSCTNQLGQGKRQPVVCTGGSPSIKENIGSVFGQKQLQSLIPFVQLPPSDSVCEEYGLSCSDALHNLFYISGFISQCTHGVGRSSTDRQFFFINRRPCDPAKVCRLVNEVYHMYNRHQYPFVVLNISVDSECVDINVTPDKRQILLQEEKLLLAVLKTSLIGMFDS
Chain of recombinant N-terminal MLH1 (residues 15-340) (P40692 15-340): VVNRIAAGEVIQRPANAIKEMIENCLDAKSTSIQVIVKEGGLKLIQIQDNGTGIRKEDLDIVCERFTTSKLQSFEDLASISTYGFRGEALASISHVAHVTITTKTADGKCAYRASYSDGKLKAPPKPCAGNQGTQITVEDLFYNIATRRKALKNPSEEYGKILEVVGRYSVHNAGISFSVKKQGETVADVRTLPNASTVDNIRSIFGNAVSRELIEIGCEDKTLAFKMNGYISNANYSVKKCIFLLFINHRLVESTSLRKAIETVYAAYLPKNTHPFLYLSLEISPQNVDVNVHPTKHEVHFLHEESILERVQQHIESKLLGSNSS

Regarding `Cc1c(O)cc(O)c(C(=O)N2Cc3cccc(C(=O)N(C)C)c3C2)c1OCc1ccccc1` [Example 85, 2-(2-(Benzyloxy)-4,6-dihydroxy-3-methylbenzoyl)-N,N-dimethylisoindoline-4-carboxamide], the results for the half-inhibitory concentration (IC50) in assay [1] and in assay [2] were more than 10 µM and less than 1 µM, respectively.
Regarding `Cc1c(O)cc(O)c(C(=O)N2CCOc3ccccc32)c1OCc1ccccc1` [Example 67, (2-(Benzyloxy)-4,6-dihydroxy-3-methylphenyl)(2,3-dihydro-4H-benzo[b][1,4]oxazin-4-yl)methanone], in assay [1], the IC50 was more than 10 µM.
On to `Cc1c(O)cc(O)c(C(=O)N2Cc3ccccc3C2)c1OCc1ccccn1` [Example 34, [4,6-dihydroxy-3-methyl-2-(2-pyridylmethoxy)phenyl]-isoindolin-2-yl-methanone], for which the IC50 in assay [1] was more than 10 µM; in assay [2] it was 1 to 10 µM.
Take `Cc1c(O)cc(O)c(C(=O)N2CCc3ccccc32)c1OCc1ccccc1` [Example 70, (2-(Benzyloxy)-4,6-dihydroxy-3-methylphenyl)(indolin-1-yl)methanone]: the results for the IC50 in assay [1] and in assay [2] were more than 10 µM and 1 to 10 µM, respectively.
Taken in the same sequence, the figures for `COC(=O)c1ccc2c(c1)CN(C(=O)c1c(O)cc(O)cc1OCc1ccccc1)C2` [Example 24, methyl 2-(2-benzyloxy-4,6-dihydroxy-benzoyl)isoindoline-5-carboxylate] were less than 1 µM and less than 1 µM.
As for `O=C(c1c(O)cc(O)cc1OCc1ccccc1)N1CCC[C@H](O)C1` [Example 9, (2-benzyloxy-4,6-dihydroxy-phenyl)-[(3S)-3-hydroxy-1-piperidyl]methanone], the half-inhibitory concentration (IC50) in assay [1] is more than 10 µM.
As for `Cc1c(O)cc(O)c(C(=O)N2Cc3ccncc3C2)c1OCc1ccccc1` [Example 74, (2-(Benzyloxy)-4,6-dihydroxy-3-methylphenyl)(1,3-dihydro-2H-pyrrolo[3,4-c]pyridin-2-yl)methanone], the IC50 in assay [1] was more than 10 µM; in assay [2], less than 1 µM.
Taken in the same sequence, the figures for `Cc1c(O)cc(O)c(C(=O)N2Cc3ccc(CN4CCN(C)CC4)cc3C2)c1OCc1ccccc1` [Example 40, (2-benzyloxy-4,6-dihydroxy-3-methyl-phenyl)-[5-[(4-methylpiperazin-1-yl)methyl]isoindolin-2-yl]methanone] were more than 10 µM and less than 1 µM.
Taken in the same sequence, the figures for `Cc1c(O)cc(O)c(C(=O)N2CCc3cncnc3C2)c1OCc1ccccc1` [Example 56, (2-(benzyloxy)-4,6-dihydroxy-3-methylphenyl)(5,8-dihydropyrido[3,4-d]pyrimidin-7(6H)-yl)methanone] were more than 10 µM and 1 to 10 µM.
Taken in the same sequence, the figures for `COc1ccc2c(c1)CCN(C(=O)c1c(O)cc(O)c(C)c1OCc1ccccn1)C2` [Example 47, [4,6-dihydroxy-3-methyl-2-(2-pyridylmethoxy)phenyl]-(6-methoxy-3,4-dihydro-1H-isoquinolin-2-yl)methanone] were more than 10 µM and more than 10 µM.
On to `O=C(c1c(O)cc(O)cc1OCc1ccccc1)N1Cc2ccccc2C1` [Example 4, (2-benzyloxy-4,6-dihydroxy-phenyl)-isoindolin-2-yl-methanone], for which the 50% inhibitory concentration (IC50) in assay [1] and in assay [2] was less than 1 µM in each case.
As to `Cc1c(O)cc(O)c(C(=O)N2CCc3cc(CN(C)C)ccc3C2)c1OCc1ccccc1` [Example 61, (2-(benzyloxy)-4,6-dihydroxy-3-methylphenyl)(6-((dimethylamino)methyl)-3,4-dihydroisoquinolin-2(1H)-yl)methanone], the IC50 was more than 10 µM in assay [1] and less than 1 µM in assay [2].
Taken in the same sequence, the figures for `Cc1c(O)cc(O)c(C(=O)N2CCc3ccc(CN(C)C)cc3C2)c1OCc1ccccc1` [Example 60, (2-(benzyloxy)-4,6-dihydroxy-3-methylphenyl)(7-((dimethylamino)methyl)-3,4-dihydroisoquinolin-2(1H)-yl)methanone] were more than 10 µM and less than 1 µM.
Taken in the same sequence, the figures for `Cc1c(O)cc(O)c(C(=O)N2Cc3cccc(C#N)c3C2)c1OCc1ccccc1` [Example 82, 2-(2-(benzyloxy)-4,6-dihydroxy-3-methylbenzoyl)isoindoline-4-carbonitrile] were more than 10 µM and less than 1 µM.
In the case of `Cc1c(O)cc(O)c(C(=O)N2Cc3cccc(NC4COC4)c3C2)c1OCc1ccccc1` [Example 80, (2-(Benzyloxy)-4,6-dihydroxy-3-methylphenyl)(4-(oxetan-3-ylamino)isoindolin-2-yl)methanone], the figures for the half-maximal inhibitory concentration (IC50) in assay [1] and in assay [2] were 1 to 10 µM and less than 1 µM, respectively.
As to `Cc1c(O)cc(O)c(C(=O)N2CCc3ccc(C(=O)N(C)C)cc3C2)c1OCc1ccccc1` [Example 77, 2-(2-(Benzyloxy)-4,6-dihydroxy-3-methylbenzoyl)-N,N-dimethyl-1,2,3,4-tetrahydroisoquinoline-7-carboxamide], the IC50 in assay [1] was more than 10 µM; in assay [2], less than 1 µM.
Consider `Cc1c(O)cc(O)c(C(=O)N2Cc3cccc(OC4CCOC4)c3C2)c1OCc1ccccc1` (centres unmarked) [Example 88], for which the concentration for half-maximal inhibition (IC50) in assay [1] was more than 10 µM; in assay [2] it was less than 1 µM.
Taken in the same sequence, the figures for `Cc1c(O)cc(O)c(C(=O)N2Cc3cccc(OCC4CNC4)c3C2)c1OCc1ccccc1` [Example 89, (4-(Azetidin-3-yl methoxy)isoindolin-2-yl) (2-(benzyloxy)-4,6-dihydroxy-3-methylphenyl) methanone] were more than 10 µM and less than 1 µM.
Take `Cc1c(O)cc(O)c(C(=O)N2CCc3ccccc3C2)c1OCc1ccccn1` [Example 45, 3,4-dihydro-1H-isoquinolin-2-yl-[4,6-dihydroxy-3-methyl-2-(2-pyridylmethoxy)phenyl]methanone]: in assay [1], the IC50 is more than 10 µM.
`Cc1c(O)cc(O)c(C(=O)N2Cc3cccc(NC4CCOC4)c3C2)c1OCc1ccccc1` (centres unmarked) [Example 79, (2-(Benzyloxy)-4,6-dihydroxy-3-methylphenyl)(4-((tetrahydrofuran-3-yl)amino)isoindolin-2-yl)methanone]: the IC50 is more than 10 µM in assay [1] and less than 1 µM in assay [2].
Taken in the same sequence, the figures for `O=C(c1c(O)cc(O)cc1OCc1ccccn1)N1Cc2cccnc2C1` [Example 35, 5,7-dihydropyrrolo[3,4-b]pyridin-6-yl-[2,4-dihydroxy-6-(2-pyridylmethoxy)phenyl]methanone] were 1 to 10 µM and 1 to 10 µM.
With `Cc1c(O)cc(O)c(C(=O)N2CCc3ccccc3C2)c1OCc1ccccc1` [Example 36, (2-benzyloxy-4,6-dihydroxy-3-methyl-phenyl)-(3,4-dihydro-1H-isoquinolin-2-yl)methanone], the IC50 in assay [1] is more than 10 µM; in assay [2] it was less than 1 µM.
On to `CC(Oc1cc(O)cc(O)c1C(=O)N1CCCC1)c1ccccc1` (single isomer, unassigned) [Example 13], for which the IC50 in assay [1] and in assay [2] was more than 10 µM each time.
For the molecule `Cc1cccc(COc2c(C)c(O)cc(O)c2C(=O)N2CCc3ccccc3C2)c1` [Example 44, 3,4-dihydro-1H-isoquinolin-2-yl-[4,6-dihydroxy-3-methyl-2-(m-tolylmethoxy)phenyl]methanone], the IC50 was more than 10 µM in assay [1] and less than 1 µM in assay [2].
As for `O=C(c1c(O)cc(O)cc1OCc1ccccc1)N1CCc2ccccc21` [Example 71, (2-(Benzyloxy)-4,6-dihydroxyphenyl)(indolin-1-yl)methanone], the IC50 in assay [1] and in assay [2] was 1 to 10 µM in each case.
On to `Cc1cccc(COc2cc(O)cc(O)c2C(=O)N2CCCC2)c1` [Example 17, [2,4-dihydroxy-6-(m-tolylmethoxy)phenyl]-pyrrolidin-1-yl-methanone], for which, in assay [1], the IC50 was more than 10 µM.
The same measure, in the same setting: with `COc1ccc2c(c1)CN(C(=O)c1c(O)cc(O)c(C)c1OCc1ccccn1)CC2` [Example 46, [4,6-dihydroxy-3-methyl-2-(2-pyridylmethoxy)phenyl]-(7-methoxy-3,4-dihydro-1H-isoquinolin-2-yl)methanone] the figure was more than 10 µM; with `O=C(c1c(O)cc(O)cc1OCc1ccccc1)N1CCC[C@@H](O)C1` [Example 8, (2-benzyloxy-4,6-dihydroxy-phenyl)-[(3R)-3-hydroxy-1-piperidyl]methanone], more than 10 µM.

As a reminder, the IC50 is the point on the concentration scale where inhibition reaches its midpoint.

Source of the values: patent US12552758B2, “Inhibitors of MLH1 and/or PMS2 for cancer treatment” (NeoPhore Limited, priority 2020, dated 2026).
